Blank lines part the entries; values can stand above or below the compound they belong to.
Key:
matrix metalloproteinase = conditions: as disclosed in WO 99/19296; cited from earlier work
[1] = Oral absorption test: capsule formulations given orally to fed beagles, concentration in plasma; assay type: in vivo; conditions: beagle, 50 mg/kg
Protocol: The compound of the present invention (2 g), DK ester SS (Daiichi Kogyo Seiyaku) and lactose (2.9 g) were weighed and the mixture was mixed slightly in a mortar and the mixture was filtered through 60 mesh strainer twice to give pharmaceutical powder. The pharmaceutical powder was filled in No.0 gelatin capsule 250 mg/cap each. By this method, capsule formulations containing type-A and type-C crystal were prepared respectively.
A beagle was fed with solid food (240 g) and after 30 minutes above prepared capsules were administered in a stomach using sonde for oral administration and tap water (20 ml) was administered with sonde for oral administration.
After administration, 15 minutes, 30 minutes, 1 hour, 2 hours and 3 hours taken a blood of 1 ml from cephalic vein using heparin dealt syringe. The taken sample was disposed under 12000 rpm for 2 minutes and plasma was separated and the concentration of the compound in plasma (μg/ml) was measured.
The dose given to the beagle was 50 mg/kg and 4 beagles for type-A crystal and 3 beagles for type-C crystal.

[2] = Stability test: preservation of crystal powder, DSC caloric transition (ΔH) and X-ray diffraction; assay type: physicochemical
Protocol: Weighing out over approximately 50 mg of type-A crystal powder, it was preserved under the condition of
1) 40° C., 75% RH (relative humidity), unsealed for a month,
2) 40° C., sealed tightly for 6 months.
The type-A crystal preserved under above conditions and another type-A crystal which was preserved at 5° C. were subjected to measurement of differential scanning calorimetry (DSC) and caloric transition (ΔH) per 1 g was calculated from endothermic peak chart (see FIGS. 14-16)
ΔH=peak area/sample weight

SMILES: CCOCOC[C@H](C[C@H](C)C(=O)NO)NC(=O)c1ccc(Oc2ccccc2)cc1 [compound (I), N-hydroxy-2(S)-methyl-5-ethoxymethoxy-4(S)-[N-(4-phenoxyphenylcarbonyl)amino]pentanamide]
inhibitory activity against matrix metalloproteinase (MMP) (matrix metalloproteinase): has an inhibitory activity against matrix metalloproteinase

AUC ([1]; dog, plasma, po, AUC (area under the blood concentration-time curve), average value, sampling up to 3 hours): 5100 ng·h/mL
Cmax ([1]; dog, plasma, po, plasma, read-out: Cmax (maximum drug concentration), average value): 3600 ng/mL
ΔH (calorie variation of endothermic peak, absolute value) ([2]; 1 month, 40° C.-75% RH, unsealed): 14.80 J/g
ΔH (calorie variation of endothermic peak, absolute value) ([2]; 6 months, 40° C., sealed tightly): 13.41 J/g
crystal stability (crystal transition on preservation) ([2]; 40° C.-75% RH a month and 40° C. 6 months, DSC and X-ray diffraction): stable crystal
ΔH (calorie variation of endothermic peak, absolute value) ([2]; initial (type-A crystal preserved at 5° C.)): 13.40 J/g
SMILES: CCOCOC[C@H](C[C@H](C)C(=O)NO)NC(=O)c1ccc(Oc2ccccc2)cc1 [Type-A crystal, N-hydroxy-2(S)-methyl-5-ethoxymethoxy-4(S)-[N-(4-phenoxyphenylcarbonyl)amino]pentanamide]
concentration in plasma, comparison of crystals [1]: higher concentration in plasma than type-C crystal

Cmax (maximum drug concentration), average value ([1]; plasma): 2000 ng/mL
AUC (area under the blood concentration-time curve), average value ([1]; plasma, sampling up to 3 hours): 3500 ng·h/mL
SMILES: CCOCOC[C@H](C[C@H](C)C(=O)NO)NC(=O)c1ccc(Oc2ccccc2)cc1 [Type-C crystal, N-hydroxy-2(S)-methyl-5-ethoxymethoxy-4(S)-[N-(4-phenoxyphenylcarbonyl)amino]pentanamide, reference compound]

Reference: patent publication US20040152785A1, “Novel crystal of n-hydroxy-2 (s)-methyl-5-ethoxymethoxy-4(s)-[n-(4-phenoxyphenylcarbonyl)amino] pentanamide, process for their production and medicines containing the crystals as the active ingredient” (priority 2000, published 2004)
